Source: patent US20230365516A1, “COMPOUNDS FOR CANCER THERAPY AND IMAGING” (Washington University, priority 2020, published 2023)
“Also recorded” adds a separate entry of the source. Read-outs that look alike come from different tables or passages of the source.

How the values were obtained:
U266 cells [1] = test: Cell viability assay (CellTiter-Glo), U266 cells; type: cell-based, human
Description: (§1) Cell culture and Reagents: Human MM cell lines MM1.S, U266, and OPM2 were cultured in RPMI-1640 medium supplemented with 10% fetal bovine serum, 100 units/mL penicillin, 100 µg/mL streptomycin at 37° C., 5% CO2. PBMCs were purchased from Lonza Bioscience, USA and maintained overnight in RPMI-1640 medium supplemented with 10% fetal bovine serum, 100 units/mL penicillin, 100 µg/mL streptomycin at 37° C., 5% CO2 before using for experiments. IL-6 and IGF-1 were purchased from R&D Systems. PD98059 was obtained from Cell Signaling Technology. Z-VAD-FMK was purchased from Santa Cruz. Bortezomib was obtained from Sigma. LS1090 [2-((7-nitrobenzo[c][1,2,5]oxadiazol-4-yl)thio)ethyl (3-(trifluoromethyl)phenyl)carbamate] was purchased from MolPort, Inc.M. Maybridge library was purchased from Thermo Fisher Scientific, NeXT Diversity 3500 and Diversity SAR 3500 sets were gifts from NCI.
(§2) Cell viability assay: Twenty thousand MM1.S, U266, OPM2, and PBMCs in 100 µL of growth media were added per well in a 96-well plate. The cells were incubated for 24 h with serial dilutions of LS1090 stock solution (10 mM in DMSO) or BTZ stock solution (1 mM in DMSO). Dilutions were prepared in growth media. Cells viability was assessed using the CellTiter-Glo luminescence-based assay (Promega). After adding 100 µL CellTiter-Glo reagent, relative luminescence units (RLU) were measured using the Synergy2 plate reader (BioTek) and expressed as a percentage of the untreated cell controls.

[2] = test system: MM1.S-GFP-Luc disseminated MM xenograft
Source text: MM1.S cells stably transfected with GFP-firefly Luciferase (MM1.S-GFP-Luc), when administered intravenously (IV) in Fox Chase SCID beige mice, home to the bone marrow (BM) and are readily detectable by bioluminescence imaging (BLI) after 15-21 days from inoculation. On the third week from tumor inoculation, detecting the presence of the MM lesions in BM in mice with BLI photon flux of 106, we initiated therapy.
The mice were subjected to four dosages of therapy in two days apart over two weeks. The therapy were stopped after four dosages and the tumor progression over time was monitored by in vivo BLI once a week. […] Paralysis or loss of 15% of the original weight were taken as criteria of end point of the mice.
Each treated mouse received two doses per week separated by 3 days over two weeks for a total of four dosages, and BLI was used to monitor tumor progression. […] The endpoint for the study includes paralysis, loss of 20% of the original weight or sudden death due to the tumor burden before any other symptom appeared.
Fox Chase SCID Beige mice (From in house colony) (8-10 weeks old) were implanted with MM1.S cells stably transfected with GFP and CBR Luciferase (MM1.S-GFP-Luc) (2 million cells in 100 µL DPBS per mouse) by tail vein injection. […] The progression of tumor was monitored by whole-body BLI once a week post tumor inoculation. […]

[3] = test system: chymotrypsin-like activity of proteasomes; test: Proteasome-Glo Chymotrypsin-Like activity assay in MM.1S cells; type: cell-based, human
Description: Proteasome activity assays: MM.1S cells were seeded in a white 96-well plate at a density of 20000 per well. Cells were treated with 1 µML LS1090 or 100 nM Bz for 4 h before accessing chymotrypsin-like activity using Proteasome-Glo™ Chymotrypsin-Like, (Promega). After adding the Proteasome-Glo™ reagent, luminescence was determined as relative light units (RLU) using the Synergy2 plate reader (BioTek).

MM.1S cells [4] = test: Cell viability assay (CellTiter-Glo), MM.1S cells; type: cell-based, human; conditions: for EC50: MM1.S
Description: as §1, §2

Bax = test: Western blot of Bax expression in MM.1S cells; type: cell-based, human
Description: (§3) ERK is known to exert its pro-apoptotic function by upregulating p53 and downregulating Bcl-2 expression. […] In contrast, the expression of pro-apoptotic protein, Bax, increased within 1 h post-treatment (FIG. 5H).
(§4) Cell extract preparation and Western blotting: Protein extracts were prepared by washing cells with PBS (pH 7.4) and suspending in RIPA lysis buffer (20 mM Tris-HCI (pH 7.5), 150 mM NaCl, 1 mM Na2EDTA, 1 mM EGTA, 1% NP-40) containing protease and phosphatase inhibitors (Sigma). Equal amounts of protein, as determined by the BCA protein assay (Thermo Fisher Scientific), were subjected to SDS-PAGE (12% gels; Bio-Rad), followed by transfer to nitrocellulose membrane. Membrane were incubated with 1:1000 anti-ERK1/2 (Thr202/Tyr204, anti-phosphoERK1/2 (Thr202/Tyr204), anti-p53, anti-Bcl2, anti-Bax (Cell Signaling Technology) and anti-βActin (Santa Cruz). Secondary antibodies consisted of horseradish peroxidase-conjugated goat anti-rabbit IgG or goat anti-mouse IgG (Sigma). Detection was done by the enhanced chemiluminescence method (Thermo Fisher Scientific).

5TGM1 = test: Growth inhibition of mouse MM cell line 5TGM1; type: cell-based
OPM2 cells = test: Cell viability assay (CellTiter-Glo), OPM2 cells; type: cell-based; conditions: OPM-2, human OPM2 cells
Description: as §1
as §2, with “The cells were incubated for 24 h with serial dilutions of LS1090 stock solution (10 mM in DMSO) or BTZ stock solution (1 mM in DMSO). Dilutions were prepared in growth media.” left out

caspase 3/7 = test: Caspase-Glo3/7 assay in MM.1S cells; type: cell-based, human
Description: Apoptosis and caspase activation assays: Caspase3/7 activity was measured using Caspase-Glo3/7 Assay System (Promega). MM.1S cells were seeded in a white 96-well plate at a density of 20000 cells per well. Cells were pretreated with 20 µmol/L PD98059 followed by incubation with 1 µM LS1090 for 4 h at 37° C., 5% CO2 before accessing caspase 3/7 activity. Caspase-Glo3/7 reagent was added directly to the cells and incubated for 30 min before recording luminescence using the Synergy2 plate reader (BioTek). Data were represented as a fold change from the untreated cells control. Kinetics of apoptosis and necrosis was monitored using RealTimeGlo Annexin V Apoptosis and Necrosis Assay (Promega). MM.1S cells were treated with 1 µM LS1090 and incubated in the presence of 100 µL the RealTimeGlo Annexin V Apoptosis and Necrosis reagent at 37° C., 5% CO2. The luminescence and fluorescence signals were monitored for 24 h. Relative luminescence units (RLU) and relative fluorescence units (RFU) were measured at different time points using the Synergy2 plate reader (BioTek).

ERK1/2 = test: Western blot of ERK1/2 activation in MM.1S cells; type: cell-based, human
Description: ERK1/2 signaling plays an essential role in the cascade of apoptosis-mediated cell death. To interrogate its involvement, MM.1S cells were treated with LS1090 and Western blots used to determine ERK1/2 activation. […] Given that ERK1/2 signaling can utilize caspase-dependent or independent pathways to induce apoptosis, LS1090 mediated activation of caspase 3/7 in MM.1S cells was examined in the presence or absence of ERK1/2 activation inhibitor, PD98059. […] The consequential effect of caspase 3/7 activation on cell death was further validated by determining the viability of LS1090-treated MM1.S cells in the presence or absence of the caspase inhibitor, Z-VAD-fmk.
Cell extract preparation and Western blotting: Protein extracts were prepared by washing cells with PBS (pH 7.4) and suspending in RIPA lysis buffer (20 mM Tris-HCI (pH 7.5), 150 mM NaCl, 1 mM Na2EDTA, 1 mM EGTA, 1% NP-40) containing protease and phosphatase inhibitors (Sigma). Equal amounts of protein, as determined by the BCA protein assay (Thermo Fisher Scientific), were subjected to SDS-PAGE (12% gels; Bio-Rad), followed by transfer to nitrocellulose membrane. […]

MM.1S cells [5] = test: RealTime-Glo Annexin V Apoptosis and Necrosis Assay, MM.1S cells; type: cell-based, human
Source text: LS1090 activates ERK1/2 to induce apoptosis in MM cells via a p53-independent pathway: Chemotherapeutics exert their effects via multiple cell death pathways, including apoptosis and necrosis. To determine the dominant mechanism of LS1090-induced MM cell death, RealTime-Glo Annexin V Apoptosis and Necrosis Assay were used, which report both pathways simultaneously. The method reports apoptosis by detecting phosphatidylserine on the outer leaflet of cell membranes and necrosis by measuring plasma membrane integrity. […] This delayed necrosis onset points to a cell death mechanism where pro-apoptosis induction transforms into secondary necrosis when phagocytes are not available to remove apoptotic cells.
Apoptosis and caspase activation assays: Caspase3/7 activity was measured using Caspase-Glo3/7 Assay System (Promega). MM.1S cells were seeded in a white 96-well plate at a density of 20000 cells per well. […] Caspase-Glo3/7 reagent was added directly to the cells and incubated for 30 min before recording luminescence using the Synergy2 plate reader (BioTek). […] Kinetics of apoptosis and necrosis was monitored using RealTimeGlo Annexin V Apoptosis and Necrosis Assay (Promega). […] The luminescence and fluorescence signals were monitored for 24 h. Relative luminescence units (RLU) and relative fluorescence units (RFU) were measured at different time points using the Synergy2 plate reader (BioTek).

PBMCs = test: Cell viability assay (CellTiter-Glo), nontumor PBMCs; type: cell-based; conditions: 24 h incubation, at the EC50/IC50 for MM1.S (0.49 µM) and higher
Description: Cell culture and Reagents: Human MM cell lines MM1.S, U266, and OPM2 were cultured in RPMI-1640 medium supplemented with 10% fetal bovine serum, 100 units/mL penicillin, 100 µg/mL streptomycin at 37° C., 5% CO2. PBMCs were purchased from Lonza Bioscience, USA and maintained overnight in RPMI-1640 medium supplemented with 10% fetal bovine serum, 100 units/mL penicillin, 100 µg/mL streptomycin at 37° C., 5% CO2 before using for experiments. […] Bortezomib was obtained from Sigma.

Bcl-2 = test: Western blot of Bcl-2 expression in MM.1S cells; type: cell-based, human
Description: as §3, §4

p53 = test: Western blot of p53 expression in MM.1S cells; type: cell-based, human
Description: as §3, §4

[6] = test system: IGR Cap1, HT1080, and MDA MB231; test: Viability of selected cancer cell lines after 24 h with LS1090; type: cell-based; conditions: 1 µM LS1090, 24 h
Description: Cells were treated with LS1090 for 24h, followed by assessment of viability using CellTitler-Glow assay. n=4 for each condition.
Additionally, the viability of selected cancer cell lines were evaluated (IGR Cap1, HT1080, and MDA MB231) after 24 h incubation with LS1090 (see, e.g. FIGS. 9-11).

U266 cells [7] = test: RealTime-Glo Annexin V Apoptosis and Necrosis Assay, U266 cells; type: cell-based, human; conditions: monitored 24 h

Compound: CC(C)C[C@H](NC(=O)[C@H](Cc1ccccc1)NC(=O)c1cnccn1)B(O)O [BTZ, Bortezomib, reference compound]
- sensitivity of U266 cells to BTZ relative to MM.1S cells (less sensitive) (U266 cells [1]; U266 versus MM.1S): 10 fold
- course of disease, BTZ ([2]; 0.5 mg/kg or 1.0 mg/kg IP, same regimen): experienced early remission and relapsed after 6-week post-inoculation
- toxicity of BTZ dose over 1 mg/Kg ([2]; BTZ over 1 mg/Kg IP): lethal effect on mice after the second dose
- chymotrypsin-like activity in MM.1S cells, BTZ ([3]; 0.1 µM, 4 h): efficiently inhibits
- EC50 (MM.1S cells [4]; Homo sapiens, MM.1S cells, read-out: EC50 of BTZ alone): 2 nM
- EC50 of BTZ with increasing concentration ratio of LS1090 to BTZ (MM.1S cells [4]; MM.1S cells, in combination with LS1090): 1.4 nM

Compound: O=C(Nc1cccc(C(F)(F)F)c1)OCCSc1ccc([N+](=O)[O-])c2nonc12 [LS1090, 2-((7-nitrobenzo[c][1,2,5]oxadiazol-4-yl)thio)ethyl (3-(trifluoromethyl)phenyl)carbamate]
- time to increased Bax expression post-treatment (Bax): ≤ 1 h
- IC50 (5TGM1; 5TGM1, mouse MM cell line 5TGM): 320 nM
- EC50 (5TGM1; mouse MM cell line 5TGM1): 320 nM
- IC50 (OPM2 cells): 490 nM
- EC50 (OPM2 cells; 24 h): 490 nM
- increase in caspase 3/7 activity (caspase 3/7; MM.1S cells, 1 µM LS1090, 4 h incubation, fold change from untreated cells): over seven-fold increase
- cytotoxicity at 1 µM (U266 cells [1]; Homo sapiens, U-266, 1 µM LS1090, read-out: decrease of viability of U266 cells): 55%
- IC50 (U266 cells [1]; U-266, human U266 cells): 440 nM
- EC50 (U266 cells [1]; U-266, human U266 cells, 24 h): 440 nM
- duration of activated ERK1/2 state (ERK1/2): sustained over 3 h
- time to ERK1/2 phosphorylation post-treatment (ERK1/2): less than 1 h
- time of apoptosis peak post-treatment (MM.1S cells [5]; MM cells treated with LS1090 (1 µM)): about 10 h
- apoptosis-necrosis time pattern (MM.1S cells [5]; MM.1S cells, monitored 24 h): necrosis lagged apoptosis
- cytotoxicity on PBMCs (PBMCs): significant toxic effect; also recorded: significant cytotoxicity
- Bcl-2 expression after treatment (Bcl-2): did not downregulate
- chymotrypsin-like activity in MM.1S cells, LS1090 ([3]; 4 h incubation at ten-fold the concentration of BTZ): did not significantly perturb
- p53 expression after treatment (p53): lack of p53 enhancement
- effect on viability of selected cancer cell lines [6]: had an effect on all tested cancer cell lines
- apoptosis-necrosis time pattern (U266 cells [7]): same apoptosis-necrosis pattern
- cells eradicated (MM.1S cells [4]; LS1090-treated MM1.S cells, absence of Z-VAD-fmk): 60%
- EC50 (MM.1S cells [4]; human MM.1S cells, 24 h, read-out: EC50, MM.1S): 490 nM
- cytotoxicity in the presence of recombinant IL-6 or IGF-1 (MM.1S cells [4]; MM.1S cells, 24 h): neither recombinant IL-6 nor IGF-1 blocked
- IC50 (MM.1S cells [4]; human MM1.S cells): 490 nM

Compound: COc1cccc(-c2cc(=O)c3ccccc3o2)c1N [PD98059, reference compound]
- LS1090-triggered caspase 3/7 activity in the presence of PD98059 (caspase 3/7; MM.1S cells pretreated with 20 µmol/L PD98059, then 1 µM LS1090 4 h): inhibited

Compound: Z-VAD-fmk [reference compound]
- LS1090-induced cell death on co-incubation with Z-VAD-fmk (MM.1S cells [4]; MM1.S cells, p< 0.0001): inhibited this event
